{"source": "patent US20200289473A1", "about": "“METHODS OF TREATING NEURODEGENERATION” (The J David Gladstone Institutes a testamentary trust …, priority 2017, published 2020)", "key": {"[1]": {"tested_on": "fibrin-activated microglia cells", "experiment": "proliferation of fibrin-activated microglia cells", "assay_type": "cell-based", "settings": "increase in cell count upon activation; dose-dependent (FIG. 3)", "description": "(§1) Throughout assay development, we consistently observed multiple-fold proliferation (increase in cell count) of microglia upon activation. Proliferation of fibrin-activated microglia cells was inhibited by treatment with acivicin. […] We also examined the effect of acivicin on microglia activation by other immunostimulatory agents."}, "[2]": {"tested_on": "myelin damage and neuronal injury in EAE", "experiment": "MBP and SMI-32 immunohistochemistry in EAE", "assay_type": "in vivo", "settings": "after EAE induction; vs saline-treated mice", "description": "To investigate whether acivicin can protect from myelin damage and neurodegeneration in EAE, MBP and SMI-32 immunohistochemistry was used to assess myelin damage and neuronal injury."}, "[3]": {"tested_on": "fibrin-induced microglia activation", "experiment": "fibrin-induced microglia activation assay", "assay_type": "cell-based", "settings": "dose-dependent, fibrin stimulus, read-out: IC50, inhibition of fibrin-induced microglia activation", "description": "(§2) To identify inhibitors of microglia activation, an assay as described in U.S. Ser. No. 15/109,163, was used to screen a library of 1907 clinical drugs and bioactive compounds. The criteria for hits were ≥50% inhibition of activation and ≤3% cell death to exclude toxic compounds. This represents a three standard deviation difference from the mean value of negative control activated cells. 128 compounds were selected from the screen that satisfied these criteria for dose response curves. Acivicin, a γ-glutamyl transpeptidase inhibitor, was identified among the compounds and was selected for additional characterization as it was an unexpected target for microglial activation and had not been previously linked with neurological diseases.\nas §1"}, "[4]": {"tested_on": "Cx3cr1+ microglia and Ccr2+ monocytes", "experiment": "microglial accumulation and monocyte infiltration in Ccr2RFP/+Cx3cr1GFP/+ mice with MOG35-55 EAE", "assay_type": "in vivo", "settings": "prophylactic injection", "description": "CNS-resident innate immune cell microglia and CNS-infiltrating inflammatory monocytes are essential for the inflammatory progression of EAE. Yamasaki, R. et al. J Exp Med 211, 1533-1549 (2014); Ajami, B. et al, Nature neuroscience 14, 1142-1149 (2011). To determine whether blocking the γ-glutamyl transpeptidase activity with acivicin inhibits microglial activation and infiltration of monocytes/macrophages in vivo in the EAE models, Ccr2^RFP/+Cx3cr1^GFP/+ mice in which resident microglia are GFP-positive and inflammatory monocytes are RFP-positive were used. Ryu, J. K. et al. Nat Commun 6, 8164 (2015). EAE was induced with MOG35-55, and mice were prophylactically injected with acivicin."}, "[5]": {"tested_on": "LPS-induced microglia activation", "experiment": "LPS-induced microglia activation assay", "assay_type": "cell-based", "settings": "LPS stimulus; comparable to fibrin (FIG. 4)", "description": "as §2, §1"}, "MOG35-55 induced EAE": {"tested_on": "MOG35-55 induced EAE", "experiment": "chronic EAE model (MOG35-55), prophylactic treatment, clinical score", "assay_type": "in vivo", "settings": "MOG35-55 mice; daily i.p. starting 0 day after immunization; vs saline", "description": "(§3) To further study the ability of acivicin to inhibit microglial activation, acivicin was next studies for its ability to suppress disease progression and ameliorate the disease symptoms in the EAE animal models of multiple sclerosis. Two models of EAE were used: (1) mice immunized with MOG35-55 to induce chronic disease and (2) mice immunized with PLP139-151 to induce relapsing-remitting EAE.\nFirst, to examine the ability of acivicin to prevent disease symptoms and/or progression to multiple sclerosis in a chronic EAE model, acivicin or saline were administered prophylactically to mice immunized with MOG35-55 to induce chronic disease. The mice were immunized with MOG35-55 to induce chronic disease. Acivicin or saline was administered daily by intraperitoneal (i.p.) injection, starting 0 day after immunization (n=15 saline, n=14 acivicin)."}, "PLP139-151 induced EAE": {"tested_on": "PLP139-151 induced EAE", "experiment": "relapsing-remitting EAE model (PLP139-151), therapeutic treatment, clinical score", "assay_type": "in vivo", "settings": "PLP139-151 mice; daily i.p. starting at peak EAE; vs saline", "description": "as §3\nNext, to assess the ability to therapeutic efficacy of acivicin to treat disease symptoms and/or progression in relapsing-remitting (PLP139-151) EAE model, mice were administered either acivicin or saline injections daily by intraperitoneal (i.p.) injection starting at the peak EAE phase of the EAE PLP139-151. (n=6 saline, and n=7 acivicin). Acivicin decreased the clinical severity of EAE during remission phases (FIG. 7)."}, "[6]": {"tested_on": "pro-inflammatory gene expression", "experiment": "real-time PCR of pro-inflammatory genes in spinal cords at the peak of EAE", "assay_type": "in vivo, mice", "settings": "spinal cord, peak of MOG35-55 EAE; vs saline", "procedure": "To gain insight into the anti-inflammatory mechanism by which acivicin regulates the progression of inflammation after EAE, real-time PCR analysis was used. Real-time PCR analysis of expression of pro-inflammatory genes in the spinal cords of MOG35-55 treated mice was performed at the peak of EAE in the saline-treated and acivicin-treated mice (n=7 saline and n=7 acivicin)."}, "microglia": {"tested_on": "microglia", "experiment": "cell toxicity in the microglia activation assay", "assay_type": "cell-based", "settings": "up to highest assay concentration of 20 μM", "description": "as §2, §1"}}, "note": "Entries after “also recorded” stand apart in the source; their conditions may differ."}
{"smiles": "N[C@H](C(=O)O)[C@@H]1CC(Cl)=NO1", "note": "[acivicin]", "values": [{"measurement": "proliferation of fibrin-activated microglia cells", "setting": "[1]", "result": "inhibited"}, {"measurement": "axonal injury (SMI-32 immunohistochemistry)", "setting": "[2]", "result": "dramatic reduction"}, {"measurement": "myelin damage (MBP immunohistochemistry)", "setting": "[2]", "result": "dramatic reduction"}, {"measurement": "IC50", "setting": "[3]", "result": 2000, "unit": "nM"}, {"measurement": "accumulation of Cx3cr1+ microglia (% area GFP in spinal cord)", "setting": "[4]", "result": "significantly decreased"}, {"measurement": "infiltration of Ccr2+ monocytes (% area RFP)", "setting": "[4]", "result": "significantly decreased"}, {"measurement": "inhibition of microglia activation by LPS (potency)", "setting": "[5]", "result": "comparable low μM potency"}, {"measurement": "acute phase of EAE (clinical score)", "setting": "MOG35-55 induced EAE", "result": "completely inhibited"}, {"measurement": "clinical severity of EAE during remission phases", "setting": "PLP139-151 induced EAE", "result": "decreased"}, {"measurement": "EAE-induced transcription of Ccl5", "setting": "[6]", "result": "inhibits"}, {"measurement": "EAE-induced transcription of Cxcl10", "setting": "[6]", "result": "inhibits"}, {"measurement": "EAE-induced transcription of IL-1b", "setting": "[6]", "result": "inhibits"}, {"measurement": "EAE-induced transcription of IL-12p40", "setting": "[6]", "result": "inhibits"}, {"measurement": "EAE-induced transcription of iNOS", "setting": "[6]", "result": "inhibits"}, {"measurement": "toxic cell death / cell toxicity", "setting": "microglia", "result": "no apparent cell toxicity; also recorded: not evident"}]}
